Assay results: paper PMC5796995 (Oncotarget, 2017)

Assays:
HepG2 cells [1] = type: cell-based, human
[2] = test system: Salmonella typhimurium (TA100); type: cell-based
plasma proteins = type: in vitro ADME; conditions: human
HepaRG cells [3] = type: cell-based, human
HepG2 cells [4] = type: cell-based, human; remark: listed apart in the source
HepaRG cells [5] = type: cell-based, human; remark: listed apart in the source
[6] = test system: hepatic microsomal enzymes; type: in vitro ADME, rat
calf thymus DNA = type: biochemical
Caco-2 monolayers = type: in vitro ADME
Method: Assay plates containing 12 wells of 21-day Caco-2 monolayers were provided by MB Biosciences. Monolayer integrity was verified using transepithelial electrical resistance measurements (TEER) prior to assay. Treatment solutions of AFB1, AFB2a, and AFB2a-Arg were prepared in the provided Hank's buffered salt solution (HBSS) with a pH of 7.4 and a final DMSO concentration of 0.2%. Caco-2 monolayers were first rinsed with HBSS and then the apical chamber was filled with 500 μL of test compound solution while the basal chamber was filled with 1500 μL of blank HBSS (both chambers were kept at pH 7.4). Plates were incubated at 37°C for 2 hours to allow compound equilibration. Compound concentration was measured at t = 0 hrs and t = 2 hours by HPLC-MS. Permeability (Papp) was calculated as follows: Papp=dQ/dt×1/A×C0
Where dQ/dt is the amount of translocated material over incubation time (nmol/s), A is the area of the insert (cm^2), and C0 is the initial concentration of the test compound applied. […] ER was calculated as follows: ER=Papp(Basal→Apical)/Papp(Apical→Basal)

[7] = type: physicochemical; conditions: pH 7
Method: Individual standards of AFB1, AFB2a, and AFB2a-Arg were prepared in deionized water (pH 7) at a concentration of 300 ng/mL each. Aliquots of 300 μL of each aqueous standard were added to 300 μL of 1-octanol. Solutions were shaken at 1800 rpm for 5 min and then allowed to equilibrate for an additional 30 minutes. Aqueous and organic layers for each sample were separated and analyzed by HPLC-MS. Octanol-water partition coefficients (P) were calculated as follows: P=[Peak area in octanol fraction]/[Peak area in aqueous fraction]

SMILES	number of micronuclei (HepG2 cells [1])	number of revertant wells (mutagenic response) [2]	plasma protein bound (plasma proteins) [%]	number of micronuclei (HepaRG cells [3])	concentrations that significantly reduced the percentage of viable cells (HepG2 cells [4])	concentrations that significantly reduced the percentage of viable cells (HepaRG cells [5])	degraded by hepatic microsomal enzymes [6]	DNA adduct formation (calf thymus DNA)	concentrations without increase in micronuclei formation (HepG2 cells [1]) [µM]	concentrations without increase in micronuclei formation (HepaRG cells [3]) [µM]	efflux ratio, comparison (Caco-2 monolayers)	intestinal permeability (Papp), comparison (Caco-2 monolayers; pH 7.4)	octanol-water partition coefficient [7]
COc1cc2c(c3oc(=O)c4c(c13)CCC4=O)C1C=COC1O2 (stereo not drawn) [AFB1, aflatoxin B1, reference compound]	significant increase in the number of micronuclei	significant increase in the number of revertant wells	82	significant increase in the number of micronuclei	> 7.5 µM	> 3.75 µM	approximately 75%	presence of DNA adduction					
COc1cc(O)c(-c2ccn(C(CCCNC(=N)N)C(=O)O)c2)c2oc(=O)c3c(c12)CCC3=O (stereo not drawn) [AFB2a-Arg, aflatoxin B2a-arginine]	did not show this genotoxic marker	did not show any significant differences from the vehicle	99	did not show this genotoxic marker	no significant decreases in cell viability	no significant decreases in cell viability	not significantly degraded	no additional peaks were discovered	≤ 60	≤ 60	significantly higher efflux ratio than AFB1	significantly lower than AFB1	lower partition coefficient than AFB1 or AFB2a
